The values below come from patent publication US20070155771A1, “Methods and means for treating protein conformational disorders” (priority 2003, published 2007).

In assay [1] the test system is mTOR-dependent TOP-translation. The assay can be described thus: TOP-luciferase reporter assay in PC12 cells stably expressing Q23 or Q74. Type of assay: cell-based, rat. The method, then: (§1) PC12 cells stably expressing Q23 or Q74 were transfected with a luciferase construct having a 5′ untranslated region from the eEF2 gene containing a terminal oligopyrimidine tract (TOP-luciferase) or without the TOP sequence (Control-luciferase) along with β-galactosidase (to control transfection efficiency). Transfected cells were maintained in serum free medium with doxycycline for 36 hours following which the cells were stimulated with 15% serum with or without rapamycin for 3 h. Cells were then lysed and luciferase assays were performed according to standard protocol. COS-7 cells were co-transfected with Q23 or Q74 with control- or TOP-luciferase along with β-gal and experiments were performed as above. […] Experiments were performed in sextuplicate and repeated several times.
Phosphorylation of the ribosomal protein S6 by S6K1 positively regulates the translation initiation of mRNAs containing 5′-terminal oligopyrimidine tracts (5′-TOP), like mRNAs coding for ribosomal proteins and translation elongation factors. A previously validated luciferase reporter assay was used to measure mTOR-dependent TOP-translation (Kim, J. E. & Chen, J. Proc Natl Acad Sci USA 97, 14340-14345 (2000), Schwab, M. S. et al. Mol Cell Biol 19, 2485-2494 (1999)). Rapamycin is a specific inhibitor of mTOR. Comparison of cells for TOP-dependent translation with this assay in the presence or absence of rapamycin allows assessment of the amount of functional cellular mTOR that can be inhibited by rapamycin. In FIG. 10C, each bar represents the difference between the luciferase activities (corrected for transfection efficiency-see methods) in the presence vs. the absence of rapamycin, for a luciferase reporter with a TOP sequence (+TOP) (FIG. 10A) and otherwise identical control construct without the TOP sequence (−TOP) (FIG. 10B).

Assay [2] deals with mTOR-dependent TOP-translation. The experiment in a line: Luciferase reporter assay with non-typical TOP sequence in COS-7 cells co-transfected with Q23 or Q74. The class given is cell-based, African green monkey. Here is the method: as §1
The data in FIG. 11C is represented as explained above for FIG. 10C.

The test system of assay [3] is LC3-stained vesicles (autophagosomes). The experiment in a line: Number of LC3-stained vesicles (autophagic activity). Type of assay: cell-based. As to conditions: rapamycin treatment. An excerpt: Immunocytochemistry was done in COS-7 cells fixed with 4% paraformaldehyde (Sigma). Free-floating mouse brain sections from HD transgenic and control brains and paraffin-embedded HD grade III and control brain slices spanning the caudate and putamen regions were used for histochemical analysis. Primary antibodies used: anti-mTOR, anti-phospho-mTOR (Ser2448), anti-4E-BP1, anti-phospho-S6 (Ser235/236) (Cell signalling technologies), anti-LC3 (kind gift from Dr Yoshimori) and anti-huntingtin and anti-ubiquitin (both from Chemicon). Immunohistochemistry was performed by standard fluorescence methods or peroxidase labelling using Vectastain Avidin: Biotinylated enzyme Complex (ABC) kit. Relevant negative controls without the primary antibodies were performed alongside all the experiments.
LC3-II is a form of microtubule associated protein-1 light chain-3 (MAP-LC3), which is associated with mammalian autophagosomes (Kabeya, Y. et al. Embo J 19, 5720-5728 (2000)). […] While this effect was subtle, it was consistent and reproducible in four independent experiments. In addition, LC3-II increased upon induction of mutant huntingtin fragment expression in the stable PC12 cells, while no difference was seen upon induction of the Q23 cells. Another way one can score autophagic activity is to assess the number of LC3-stained vesicles.

Regarding rapamycin, the “inhibition of TOP-dependent (+TOP) expression of luciferase” value in assay [1] (Q23-expressing PC12 cells, after serum stimulation, 3 h) is on record as “about 18%”; in assay [1] (Q74-expressing PC12 cells), “no such inhibitory effect”. In assay [1] (Q23 cells), the “luciferase activity, control-luciferase construct without the TOP sequence (−TOP)” value is given as “no inhibitory effect”. In addition, the “rapamycin-dependent reduction in luciferase activity (non-typical TOP sequence)” value in assay [2] (COS-7 cells transfected with Q23) is reported as 23%; in assay [2] (COS-7 cells transfected with Q74), “no such effect”. For the same substance, in assay [3], the “number of LC3-stained vesicles” value is “marked increase”.
